{
  "source": "patent US20240197729A1",
  "about": "“ALK-5 Inhibitors and Uses Thereof” (Sumitomo Pharma Oncology, Inc., priority 2021, published 2024)",
  "key": {"JAK signaling": {"system": "JAK signaling", "assay": "JAK selectivity assay, HEK blue IL-12 reporter", "type": "cell-based", "conditions": "HEK-Blue, 24 h, 12.5 ng/ml IL-12, 24 h", "description": "The cells were purchased from Invivogen (Catalog Nr: hkb-il12) and maintained according to vendor instructions. On the day of the experiment, cells were harvested by repeated tapping of the flask to shake loose the cells attached to the bottom of the flask. Then, cells were harvested, washed and resuspended in DMEM media supplemented with 10% fetal calf serum. 30 Microliters of cell suspension was seeded into a 384-well tissue culture-coated plate containing approximately 10,000 total cells. […] Using the ECHO “Dose Response” software, the test compound was added in duplicate wells with a 3-fold dilution curve. DMSO was back-filled to normalize the DMSO across all wells. […] After 30 minutes of incubation at room temperature, the optical density was measured at 620 nanometer using the Perkin Elmer Envision plate reader. A color change can be detected at this wavelength when secreted alkaline phosphatase, which is triggered by IL-12 signaling, is present in the supernatant. […]"}, "[1]": {"system": "BMP-6/ALK2/Hepcidin pathway", "assay": "ALK2 off-target assay, hepcidin mRNA in HepG2 hepatocytes", "type": "cell-based, human", "conditions": "Homo sapiens; HepG2, 40 ng/ml BMP-6, 3 h; read-out: IC50, hepcidin mRNA expression", "description": "In this study, LDN214117 (an ALK2 inhibitor available from Selleck Chemicals S7627) was included as a positive control, and vactosertib (an ALK5 inhibitor available from MedChem Express HY-19928) was included as a negative control.\nHepG2 human hepatocytes (ATCC HB-8065) were seeded in EMEM (ATCC30-2003)+10% FBS in 96-well plate and allowed to grow overnight at 5% CO2 at 37° C. The next day, cells were pre-treated with selected compounds (Compound 01, 04 or 05) or one of the control compounds at various concentrations, or with vehicle (DMSO) for one hour. Cells were then stimulated with recombinant human BMP-6 (R&D Systems 507-BP-020) at a final concentration of 40 ng/ml, in the presence of test compound or DMSO for three hours. A no-BMP-6 stimulation condition was included for baseline hepcidin level measurement.\nHepcidin mRNA expression was measured by real-time RT-PCR with Cells-to-CT 1-Step TaqMan Kit (ThermoFisher A25603) following manufacturer's instructions. GAPDH levels were measured, and served as a normalization control. Hepcidin primer: TaqMan HAMP-FAM/MGB 20×(ThermoFisher 4331182); GAPDH primer: TaqMan GAPDH-VIC/MGB 20×(ThermoFisher 4326317E). Delta-delta Ct method was used to obtain relative Hepcidin expression.\nThe selected compounds and control compounds LDN214117 and vactosertib were tested at drug concentrations of 20 micromolar to 1.22 nanomolar at 4-fold serial dilution. All wells contained the same DMSO concentrations. IC50 values were calculated using nonlinear regression model with GraphPad Prism software. The results of the ALK-2 off-target assay are reported in Table 3B, where “++” indicates 0.1 μM<IC50≤1 μM and “+++” indicates […]."}, "ALK5": {"target": "T1, ALK5 (Homo sapiens, UniProt P36897)", "T1 sequence (P36897 34-503)": "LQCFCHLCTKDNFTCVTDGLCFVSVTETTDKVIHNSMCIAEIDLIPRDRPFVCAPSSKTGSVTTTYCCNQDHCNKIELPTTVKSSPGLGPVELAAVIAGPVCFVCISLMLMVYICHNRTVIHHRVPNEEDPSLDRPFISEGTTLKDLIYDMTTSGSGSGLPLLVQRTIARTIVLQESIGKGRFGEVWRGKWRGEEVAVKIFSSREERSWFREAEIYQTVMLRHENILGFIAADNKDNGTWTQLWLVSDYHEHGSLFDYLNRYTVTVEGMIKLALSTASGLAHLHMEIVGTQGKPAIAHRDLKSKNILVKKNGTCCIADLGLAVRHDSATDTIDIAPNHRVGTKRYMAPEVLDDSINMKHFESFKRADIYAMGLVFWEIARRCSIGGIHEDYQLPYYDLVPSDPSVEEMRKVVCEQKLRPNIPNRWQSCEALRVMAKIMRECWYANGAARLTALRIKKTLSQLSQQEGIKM", "assay": "LanthaScreen Eu Kinase Binding Assay, ALK5", "conditions": "10-point titration, read-out: Kinase Inhibition: ALK5 IC50 (Lantha)", "description": "Selected compounds of the present disclosure were assayed for inhibitory activity against ALK5 and ALK2. Activity determinations and selectivity were conducted by Thermo Fisher Scientific SelectScreen™ Biochemical Kinase Profiling Service using their LanthaScreen™ Eu Kinase Binding Assay Screening.\nBinding of an Alexa Fluor™ conjugate or “tracer” to a kinase is detected by addition of a Eu-labeled anti-tag antibody. Binding of the tracer and antibody to a kinase results in a high degree of FRET, whereas displacement of the tracer with a kinase inhibitor results in a loss of FRET. This assay is carried out by mixing the compound tested with the reagents and reading; no development step is required.\nLife Technologies' Kinase Tracers are based on ATP-competitive kinase inhibitors, making them suitable for detection of any compounds that bind to the ATP site. Inhibitors that bind the ATP site include both Type I kinase inhibitors, which bind solely to the ATP site, and Type II inhibitors (e.g., Gleevec®/Imatinib, Sorafenib, BIRB-796), which bind to both the ATP site and a second site often referred to as the allosteric site.\nThe test compounds were screened in 1% DMSO (final) in the well. For 10-point titrations, 3-fold serial dilutions were conducted from the starting concentration (see Table 2 below).\nAll Kinase/Antibody Mixtures were diluted to a 2× working concentration in the specified kinase buffer. The 4× AlexaFluor labeled Tracer was prepared in Kinase Buffer.\n• Bar-coded, low volume, white, 384-well plate (Greiner Cat. #784207) • 1. 160 nL—100× Test Compound in 100% DMSO • 2. 3.84 μL—Kinase Buffer • 3. 8.0 μL—2× Kinase/Antibody Mixture • 4. 4.0 μL—4× Tracer • 5. 30-second plate shake • 6. 60-minute incubation at room temperature • 7. Read on fluorescence plate reader and analysis of the data\nThe following controls were made for each individual kinase and were located on the same plate as the kinase:\n100% Displacement Control: The minimum Emission Ratio was established by the 100% Displacement Control wells, which contained the highest concentration of the known inhibitor used in that assay.\nKnown Inhibitor: A known inhibitor control standard curve, 10-point titration, was run for each individual kinase on the same plate as the kinase to ensure the inhibitor was displaced within an expected IC50 range previously determined.\nThe following equations were used for each set of data points: […]\nData generated were plotted using the graphing software XLfit from IDBS. The dose response curve was curve fit to model number 205."}},
  "data": [
    {"smiles": "Cc1nn(CC(F)(F)F)cc1Nc1cc(Nc2cnnc3c(C)cccc23)ccn1", "note": "[Compound 01, N2-[3-methyl-1-(2,2,2-trifluoroethyl)-1H-pyrazol-4-yl]-N4-(8-methylcinnolin-4-yl)pyridine-2,4-diamine]", "values": [
      {"measurement": "IC50", "setting": "JAK signaling", "result": 3800, "unit": "nM"},
      {"measurement": "IC50", "setting": "[1]", "result": "≥ 1000", "unit": "nM"},
      {"measurement": "IC50", "setting": "ALK5", "result": "≤ 2", "unit": "nM"}
    ]},
    {"smiles": "Clc1cccc2c(Nc3ccnc(Nc4cccc(N5CCOCC5)c4)c3)cnnc12", "note": "[Compound 04, N4-(8-chlorocinnolin-4-yl)-N2-[3-(morpholin-4-yl)phenyl]pyridine-2,4-diamine]", "values": [
      {"measurement": "IC50", "setting": "JAK signaling", "result": 3700, "unit": "nM"},
      {"measurement": "IC50", "setting": "[1]", "result": "100 to 1000", "unit": "nM"},
      {"measurement": "IC50", "setting": "ALK5", "result": "2 to 5", "unit": "nM"}
    ]},
    {"smiles": "Cc1cccc2c(Nc3ccnc(Nc4ccc(N5CCOCC5)cc4)c3)cnnc12", "note": "[Compound 05, N4-(8-methylcinnolin-4-yl)-N2-[4-(morpholin-4-yl)phenyl]pyridine-2,4-diamine]", "values": [
      {"measurement": "IC50", "setting": "[1]", "result": "100 to 1000", "unit": "nM"},
      {"measurement": "IC50", "setting": "ALK5", "result": "2 to 5", "unit": "nM"}
    ]},
    {"smiles": "Cc1cccc(-c2[nH]c(CNc3ccccc3F)nc2-c2ccc3ncnn3c2)n1", "note": "[Vactosertib, vactosertib, reference compound]", "values": [
      {"measurement": "IC50", "setting": "JAK signaling", "result": 18500, "unit": "nM"},
      {"measurement": "IC50", "setting": "[1]", "result": "≥ 1000", "unit": "nM"}
    ]}
  ]
}
